Laboratory results published in ChEMBL document CHEMBL1201862, “PubChem BioAssay data set” (2004).
Activity calls are given as the source filed them.

Columns and labels:
[1] = molecular target: T1, Ubiquitin-conjugating enzyme E2 N (Homo sapiens, UniProt P61088); format: functional;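 note: Dose-response confirmation in a TR-FRET assay detecting UBC13-driven polyubiquitin chain formation, inhibition measured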
T1 sequence (P61088 whole entry): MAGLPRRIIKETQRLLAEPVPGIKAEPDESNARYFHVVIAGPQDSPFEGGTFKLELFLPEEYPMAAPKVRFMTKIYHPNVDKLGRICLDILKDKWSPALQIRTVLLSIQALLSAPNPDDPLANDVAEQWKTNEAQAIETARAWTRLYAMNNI

H9c2 = experiment: cells; format: functional, cell-based; details: Rattus norvegicus, H9c2, Myocardium;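 note: confirmatory concentration-response retest of ultra-high-throughput screening hits for modulation of myocardial damage; cell death induced by hydrogen peroxide oxidative stress; compound pretreatment for 60 min then peroxide exposure for 2 h; potency is for protecting the cells against peroxide damage rather than for killing them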
P388/ADR = experiment: cells; format: functional; details: Mus musculus
SN12K1 = experiment: cells; format: functional
P388 = experiment: cells; format: functional
[2] = Luminescence Cell-Based Dose Retest to Confirm Inhibitors of Cancer Stem Cells. [Related pubchem assays (depositor defined):AID2717, AID2721]; format: functional; details: Homo sapiens
cells = format: functional
Vero = experiment: cells; format: functional; details: Chlorocebus sabaeus
[3] = test system: Streptococcus sp. 'group A'; experiment: Streptococcus pyogenes SK(-)GAS viability under kanamycin – luminescence, BacTiterGlo, confirmation, counter-screen for streptokinase expression inhibitor project, dose response (AID 1900); format: functional, organism-based
Streptokinase A = molecular target: T2, Streptokinase A (Streptococcus pyogenes serotype M1, UniProt P10520); experiment: viability-normalized secreted streptokinase activity reduction – plasminogen activation absorbance, OD405, dose response (AID 1914); format: functional, Streptococcus pyogenes M1 GAS;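 note: secreted streptokinase activity via plasminogen activation per viability signal from cell pellet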
T2 sequence (P10520 whole entry): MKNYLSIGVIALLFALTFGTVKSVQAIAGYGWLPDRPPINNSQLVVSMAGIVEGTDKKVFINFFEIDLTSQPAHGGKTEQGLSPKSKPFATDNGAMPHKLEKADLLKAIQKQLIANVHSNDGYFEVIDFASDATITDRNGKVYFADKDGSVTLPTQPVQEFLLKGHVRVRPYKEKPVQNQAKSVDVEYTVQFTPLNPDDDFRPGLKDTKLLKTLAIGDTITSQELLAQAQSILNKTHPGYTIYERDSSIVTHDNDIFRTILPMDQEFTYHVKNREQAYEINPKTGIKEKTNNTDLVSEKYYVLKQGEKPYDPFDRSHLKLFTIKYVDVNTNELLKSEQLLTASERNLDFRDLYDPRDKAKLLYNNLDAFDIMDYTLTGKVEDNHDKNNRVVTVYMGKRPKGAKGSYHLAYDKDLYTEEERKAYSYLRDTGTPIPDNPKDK

Large T antigen = Large T antigen (Simian virus 40, UniProt P03070); format: functional, Betapolyomavirus macacae;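 note: Confirmatory-stage PubChem screen for compounds that inhibit SV40 T antigen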
Large T antigen, sequence (P03070 whole entry): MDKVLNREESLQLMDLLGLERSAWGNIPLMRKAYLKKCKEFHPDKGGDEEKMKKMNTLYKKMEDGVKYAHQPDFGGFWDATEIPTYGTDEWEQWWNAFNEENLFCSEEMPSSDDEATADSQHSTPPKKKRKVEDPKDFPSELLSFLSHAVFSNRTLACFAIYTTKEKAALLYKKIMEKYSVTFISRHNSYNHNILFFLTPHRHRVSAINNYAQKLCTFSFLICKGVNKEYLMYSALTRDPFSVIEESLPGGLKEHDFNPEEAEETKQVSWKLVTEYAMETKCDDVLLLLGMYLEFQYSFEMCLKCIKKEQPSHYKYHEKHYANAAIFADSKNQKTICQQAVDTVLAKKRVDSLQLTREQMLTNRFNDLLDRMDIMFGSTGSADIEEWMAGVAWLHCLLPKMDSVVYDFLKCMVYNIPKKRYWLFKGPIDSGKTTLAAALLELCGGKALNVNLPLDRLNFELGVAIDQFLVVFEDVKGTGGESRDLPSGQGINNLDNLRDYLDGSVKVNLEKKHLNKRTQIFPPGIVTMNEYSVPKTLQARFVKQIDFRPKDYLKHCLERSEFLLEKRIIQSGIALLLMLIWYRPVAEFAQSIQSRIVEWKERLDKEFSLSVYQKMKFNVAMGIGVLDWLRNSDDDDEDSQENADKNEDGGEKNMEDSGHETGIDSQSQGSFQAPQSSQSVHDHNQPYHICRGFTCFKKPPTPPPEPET

Streptococcus = experiment: GAS UMAA2166 growth inhibition – luminescence, BacTiterGlo, counter-screen for streptokinase expression inhibitor project, dose response (AID 1915); format: functional, organism-based;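 note: potency for reduction of bacterial viability or growth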
[4] = NIH-3T3 fibroblast cytotoxicity, dose response, cytotoxicity control, cell-based, fluorescence, Alamar Blue, secondary assay (AID 2327); format: functional;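 note: NIH-3T3 mouse fibroblasts cultured with fluconazole at 8 µg/mL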
[5] = fluconazole-exposed Candida albicans growth modulators – fluorescence, retest, confirmation (AID 2467); format: functional, cell-based
HEK293 = experiment: EBV LMP1 TES2 canonical NF-kB signalling blockers – cell-based, HEK293, luciferase, cherry-pick, dose response (AID 588343); format: functional; details: Homo sapiens
[6] = molecular target: FAD-linked sulfhydryl oxidase ALR (Homo sapiens, UniProt P55789); experiment: ALR-catalysed DTT oxidation blockers – biochemical, H2O2 detection, luminescence, cherry-pick, dose response (AID 493248)
FAD-linked sulfhydryl oxidase ALR, sequence (P55789 whole entry): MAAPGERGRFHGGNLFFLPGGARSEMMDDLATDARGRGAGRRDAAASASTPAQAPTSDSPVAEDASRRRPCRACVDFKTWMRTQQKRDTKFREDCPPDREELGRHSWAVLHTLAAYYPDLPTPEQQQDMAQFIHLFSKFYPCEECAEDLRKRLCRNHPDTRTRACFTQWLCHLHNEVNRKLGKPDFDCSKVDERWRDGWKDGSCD

[7] = molecular target: T3, Calpain-2 catalytic subunit (Sus scrofa, UniProt P43367); experiment: m-calpain protease blockers, concentration series – biochemical, fluorogenic peptide substrate, dose response (AID 1420); format: functional
T3 sequence (P43367 whole entry): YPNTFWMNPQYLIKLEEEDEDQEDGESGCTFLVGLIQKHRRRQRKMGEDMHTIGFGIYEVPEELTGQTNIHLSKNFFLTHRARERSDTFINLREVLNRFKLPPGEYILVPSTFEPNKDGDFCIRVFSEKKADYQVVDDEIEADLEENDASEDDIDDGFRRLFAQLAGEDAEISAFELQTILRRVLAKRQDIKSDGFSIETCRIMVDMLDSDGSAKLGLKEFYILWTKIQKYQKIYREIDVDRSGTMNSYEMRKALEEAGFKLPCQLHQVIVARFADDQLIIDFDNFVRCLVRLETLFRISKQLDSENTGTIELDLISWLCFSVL

[8] = molecular target: T4, Polyadenylate-binding protein 1 (Homo sapiens, UniProt P11940); experiment: MLLE binding blockers, Cy5 peptide tracer – biochemical, fluorescence polarization, Cy5-PAM2 peptide, secondary, miRNA deadenylation inhibitor project, dose response (AID 602260); format: functional; details: read-out: IC50_Mean
T4 sequence (P11940 whole entry, the tested form may be a part): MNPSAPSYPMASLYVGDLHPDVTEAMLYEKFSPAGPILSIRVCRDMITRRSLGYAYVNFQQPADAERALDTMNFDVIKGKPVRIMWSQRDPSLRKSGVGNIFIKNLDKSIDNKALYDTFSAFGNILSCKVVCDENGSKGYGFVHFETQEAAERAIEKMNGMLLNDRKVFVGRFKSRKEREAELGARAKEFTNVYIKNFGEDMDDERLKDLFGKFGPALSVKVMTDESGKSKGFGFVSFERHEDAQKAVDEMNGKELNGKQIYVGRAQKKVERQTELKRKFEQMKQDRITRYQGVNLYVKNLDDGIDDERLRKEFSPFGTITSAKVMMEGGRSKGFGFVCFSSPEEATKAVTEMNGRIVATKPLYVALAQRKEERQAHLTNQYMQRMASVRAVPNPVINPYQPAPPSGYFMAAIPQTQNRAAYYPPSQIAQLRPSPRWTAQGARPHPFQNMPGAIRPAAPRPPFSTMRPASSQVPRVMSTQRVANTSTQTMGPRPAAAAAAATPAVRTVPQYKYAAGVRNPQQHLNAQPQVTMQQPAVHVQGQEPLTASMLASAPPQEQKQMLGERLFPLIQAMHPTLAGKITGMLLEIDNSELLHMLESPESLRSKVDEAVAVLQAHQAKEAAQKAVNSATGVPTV

[9] = molecular target: T4, Polyadenylate-binding protein 1; experiment: MLLE domain peptide-binding blockers, IC50 – biochemical, fluorescence polarization, FITC-PAM2 peptide, dose response (AID 602259); format: functional; details: read-out: IC50_Mean
[10] = molecular target: T5, Heat shock factor protein 1 (Mus musculus, UniProt P38532); experiment: decrease of HSF1-responsive luciferase luminescence – cell-based, NIH3T3, dose retest, confirmation (AID 2382); format: functional;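 note: NIH3T3 fibroblasts with HSF1-driven luciferase reporter stressed by proteasome inhibitor MG132; luminescence from HSF1-driven luciferase expression after 8 hours of MG132 stress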
T5 sequence (P38532 whole entry): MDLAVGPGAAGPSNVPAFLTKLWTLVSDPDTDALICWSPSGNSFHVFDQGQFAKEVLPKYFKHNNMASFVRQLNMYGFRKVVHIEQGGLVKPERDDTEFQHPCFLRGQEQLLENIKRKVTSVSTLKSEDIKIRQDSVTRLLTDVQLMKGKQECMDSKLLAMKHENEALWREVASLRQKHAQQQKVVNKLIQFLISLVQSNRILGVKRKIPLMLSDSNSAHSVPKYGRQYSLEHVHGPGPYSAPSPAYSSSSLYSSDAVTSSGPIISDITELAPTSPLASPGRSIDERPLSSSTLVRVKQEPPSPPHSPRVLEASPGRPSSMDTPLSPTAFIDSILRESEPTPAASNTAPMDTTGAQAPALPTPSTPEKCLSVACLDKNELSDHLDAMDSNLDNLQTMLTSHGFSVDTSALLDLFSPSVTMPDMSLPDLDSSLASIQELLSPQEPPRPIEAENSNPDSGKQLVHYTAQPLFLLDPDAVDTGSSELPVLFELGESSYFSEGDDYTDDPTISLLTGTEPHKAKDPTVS

[11] = molecular target: Luciferin 4-monooxygenase (Photinus pyralis, UniProt P08659); experiment: inhibition of purified Photinus pyralis luciferase – biochemical, luminescence, dose response (AID 1891)
Luciferin 4-monooxygenase, sequence (P08659 whole entry): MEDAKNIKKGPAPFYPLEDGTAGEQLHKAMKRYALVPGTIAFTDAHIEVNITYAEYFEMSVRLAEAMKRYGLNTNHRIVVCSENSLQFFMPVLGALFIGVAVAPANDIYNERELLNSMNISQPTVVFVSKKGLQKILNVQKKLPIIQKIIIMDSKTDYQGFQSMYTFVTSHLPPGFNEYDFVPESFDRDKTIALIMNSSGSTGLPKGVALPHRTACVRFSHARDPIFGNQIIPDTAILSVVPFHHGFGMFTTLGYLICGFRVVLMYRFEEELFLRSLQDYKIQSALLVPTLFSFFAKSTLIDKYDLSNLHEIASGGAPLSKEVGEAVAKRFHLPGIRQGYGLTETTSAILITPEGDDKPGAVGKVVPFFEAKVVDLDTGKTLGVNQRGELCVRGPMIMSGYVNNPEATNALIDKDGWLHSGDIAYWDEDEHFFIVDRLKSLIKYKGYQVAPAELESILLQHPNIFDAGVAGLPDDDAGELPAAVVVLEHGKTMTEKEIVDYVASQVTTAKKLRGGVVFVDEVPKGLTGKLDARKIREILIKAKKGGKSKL

[12] = Luminescence Cell-Based Dose Confirmation HTS to Identify Inhibitors of Platelet Dense Granule Release. [Related pubchem assays: 1663 (Primary HTS), 1678 (Summary of Project)]; format: functional
[13] = Luminescence Cell-Based Dose Confirmation HTS to Identify Activators of 5'UTR Stem-Loop Driven Alpha-Synuclein mRNA Translation in H4 Neuroglioblastoma Cells. [Related pubchem assays: 1829 (Project Summary), 1814 (Primary HTS)]; format: functional
[14] = Luminescence Cell-Based Dose Response HTS to Identify Activators of Luciferase Translation or Activity in H4 […] Cells. [Related pubchem assays: 1829 (Project Summary), 1814 (Primary HTS)]; format: functional
H4 = experiment: Luminescence Cell-Based Dose Response HTS to Identify Activators of 5'UTR Stem-Loop Driven Prion Protein mRNA Translation in H4 Neuroglioblastoma Cells. [Related pubchem assays: 1829 (Project Summary), 1814 (Primary HTS)]; format: functional; details: Homo sapiens

O=C(NCC1CCN(Cc2ccccc2F)CC1)C1CCCN(c2ncnc3c2nc2n3CCCCC2)C1 (stereo unspecified)
IC50 [1]: > 20 µM (inactive)

O=C(Nc1nc(-c2cc(F)ccc2F)cs1)C1=NN(c2ccccc2)C(=O)CC1
IC50 (H9c2): > 79 µM (inactive)

CC[C@H](C)[C@@H]1NC(=O)c2cc([N+](=O)[O-])cc(F)c2NCCCC[C@@H](C(N)=O)NC(=O)[C@H](CCCCN)NC1=O
IC50 [1]: > 20 µM (inactive)

C=C1C(=O)OCC2C(C(=O)O)=CC3C(C)C(C)=CC123 (stereo unspecified)
GI50 (P388/ADR): 5.77 µM (inactive)
GI50 (SN12K1; Homo sapiens, SN12K1): 9.08 µM (inactive)
GI50 (P388; Mus musculus, P388): 5.21 µM (inactive)

CC(=O)c1ccc2c(c1)c1c(C)c3c[n+](C)ccc3c(C)c1n2C
GI50 (P388/ADR): 3 µM (inactive)
GI50 (SN12K1; Homo sapiens, SN12K1): 1.34 µM (inactive)
GI50 (P388; Mus musculus, P388): 0.634 µM (active)

O=C(NCCCN1CCOCC1)c1ccc(CSc2ccc(Cl)cc2)cc1
AC50 [2]: 1.25 µM (active)
IC50 (cells): 34.3 µM (active)
CC50 (Vero): > 25 µM (active)

c1cc2[nH]c(C3CC3)nc2c2nsnc12
IC50 (H9c2): > 79 µM (inactive)

CCc1ccc(C(C)NC(=O)c2cc(C)oc2C)cc1 (stereo unspecified)
IC50 (H9c2): > 79 µM (inactive)

COc1ccc2[nH]cc(CCNC(=O)Nc3ccccc3)c2c1
IC50 [1]: > 20 µM (inactive)

CN(C)C(=O)/C=C/c1c[nH]c(=O)[nH]c1=O
GI50 (P388/ADR): > 281 µM (inactive)
GI50 (SN12K1; Homo sapiens, SN12K1): > 500 µM (inactive)
GI50 (P388; Mus musculus, P388): > 281 µM (inactive)

CC(=O)O[C@H]1C[C@@]2(C)[C@@H](C[C@@H](O)[C@H]3[C@@]4(C)CC[C@@H](O)[C@@H](C)C4CC[C@@]32C)/C1=C(\CCC=C(C)C)C(=O)O (stereo partly specified)
EC50 [3]: 2.26 µM (active)
EC50 (Streptokinase A): 1.78 µM (active)
IC50 (Large T antigen): 24.7 µM (active)
EC50 (Streptococcus): 13.7 µM (active)

COc1ccc(CCNC(=O)CCC2COc3ccccc3O2)cc1OC (stereo unspecified)
EC50 [4]: > 150 µM (inactive)
EC50 [5]: 16.9 µM (active)

O=c1c2cc(-c3ccccc3)sc2nc2n1N=C(c1ccccc1)CS2
CC50 (Vero): > 25 µM (active)

CCCCCCCCCCSCC(CO)NC(=O)/C=C/c1c(C)[nH]c(=O)[nH]c1=O (stereo unspecified)
GI50 (SN12K1): 1.26 µM (inactive)
GI50 (SN12K1; Homo sapiens, SN12K1): 1.05 µM (active)
GI50 (P388): 0.479 µM (active)
GI50 (P388; Mus musculus, P388): 0.284 µM (active)

C(=C\c1ccccc1)/C=N/Nc1nc(N2CCCCC2)nc(N2CCCCC2)n1
EC50 [4]: > 150 µM (inactive)
EC50 [5]: > 38 µM (not active)

NC(=S)NN=Cc1nccc2c(C(F)(F)F)cccc12
AC50 (HEK293): 1.77 µM (active)
CC50 (Vero): 2.01 µM (active)

CC1OC(O[C@@H]2C=C3CC[C@@H]4[C@H](CC[C@]5(C)[C@@H](c6ccc(=O)oc6)CC[C@]45O)[C@@]3(C)CC2)C(O)C(O)C1O (stereo partly specified)
GI50 (P388/ADR): 47.1 µM (inactive)
GI50 (P388; Mus musculus, P388): 20.7 µM (inactive)

CCCN1CCN(CCCNC(=O)c2cc3c(O)nc4ccc(C)cc4c3s2)CC1
CC50 (Vero): > 25 µM (active)

C#CCOCCOCCOCCNc1nc(N2CCN(C(=O)[C@H]([C@@H](C)CC)n3cc([C@@H](N)Cc4ccc(O)cc4)nn3)CC2)nc(N2CCN(C(=O)[C@H](CCCCN)n3cc([C@@H](N)CO)nn3)CC2)n1
IC50 [1]: > 20 µM (inactive)

CN1CCN(S(=O)(=O)c2ccc(N3CCN(c4ccc(O)cc4)CC3)c([N+](=O)[O-])c2)CC1
IC50 (Large T antigen): 8.6 µM (active)
AC50 [6]: 2.62 µM (active)

Cc1cccc(NC(=O)CN2C(=O)N/C(=C/c3cc(C)n(-c4cccnc4)c3C)C2=O)c1
IC50 [7]: > 50 µM (not active)

CCOC(=O)C(=NC1CCCCC1)NNc1cccc(C(F)(F)F)c1
EC50 [4]: > 150 µM (inconclusive)
EC50 [5]: > 38 µM (not active)

Cc1ccc(CN(C(=O)CNC(=O)c2cccs2)C(C(=O)NCC2CCCO2)c2ccccc2)cc1 (stereo unspecified)
IC50 (H9c2): > 79 µM (inactive)

COc1cc(NS(=O)(=O)c2ccc(NC(=S)NC(=O)c3sc4ccccc4c3Cl)cc2)nc(OC)n1
IC50 [7]: > 50 µM (not active)
IC50 [8]: > 66 µM (inactive)
IC50 [9]: > 66 µM (inactive)

CC(NC(=O)Nc1ccccc1F)C(C)(C)C (stereo unspecified)
EC50 [4]: > 160 µM (inconclusive)

COc1ccccc1CN(C)C(=O)c1cc(-c2cc(OC)c(OC)c(OC)c2)nc2ccccc12
IC50 (H9c2): 29.1 µM (active)

Cc1c(O)cc2n(c1=O)-c1ccc(Cl)cc1C2(C)C
EC50 [4]: > 150 µM (inactive)
EC50 [5]: 2 µM (active)

Cc1cc(C)cc(SCc2noc(C(=O)NCc3ccccc3)c2C(=O)NCc2ccccc2)c1
EC50 [10]: > 195 µM (not active)
IC50 [7]: 6.27 µM (not active)

Clc1ccccc1-c1nc(N/N=C/c2cccnc2)c2ccccc2n1
EC50 [11]: > 112 µM (not active)
EC50 [12]: > 112 µM (not active)
IC50 (H9c2): > 79 µM (inactive)

CCc1nnc(NC(=O)CSc2nnc(CNc3ccc(OC)cc3)n2C)s1
IC50 (H9c2): 28.3 µM (active)

Cc1ccc(NCc2nnc(SCC(=O)N(Cc3ccccc3)C(C)(C)C)o2)c(C)c1
IC50 [7]: 5.13 µM (not active)

O=C(NCCc1ccccc1Cl)c1ccc2nc3ccccc3c(=O)n2c1
EC50 [13]: 10.2 µM (active)
EC50 [14]: > 120 µM (not active)
EC50 (H4): > 120 µM (not active)
IC50 (H9c2): > 79 µM (inactive)

CCOc1ccc2nc(N(CCCN(C)C)C(=O)c3ccc(C(=O)c4ccccc4)cc3)sc2c1
IC50 [1]: > 20 µM (inactive)

CC(C)n1c(O)c(N=NC(=O)CNC(=O)CCc2ccccc2)c2ccccc21
IC50 [7]: > 50 µM (not active)

Cc1[nH]c2ccccc2c1/C=N\NC(=O)Cn1nnc(-c2ccccc2)n1
IC50 [7]: > 50 µM (not active)

CN(C)/N=C/c1cc([N+](=O)[O-])ccc1O
IC50 [7]: 13.8 µM (not active)

Cc1ccc(S(=O)(=O)N2CCCCC2)cc1NC(=O)COC(=O)c1ccc2c(c1)OCO2
IC50 [7]: 1.74 µM (not active)
